Laboratory results published in PMC5607274, “An iterative compound screening contest method for identifying target protein inhibitors using the tyrosine-protein kinase Yes” (Scientific Reports, 2017).

Molecular target: T1, human recombinant Yes [a.a. 2–543 (end)] (Homo sapiens, UniProt P07947)
T1 construct: human recombinant Yes [a.a; 2–543 (end)]; purchased BPS Bioscience 40488
Test: ADP-Glo kinase assay, inhibition rates of Yes phosphorylation activity (first and second screening)
Type: biochemical
Details: 10 μmol L−1 compound; for First screening IR (inhibition rate): mean of n = 4 wells
Summary of the method: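 ADP-Glo luminescence measured inhibition of human recombinant Yes (a.a. 2–543) phosphorylation activity. In the first screen, each compound ran in 4 wells and inhibition rates were averaged. The second screen retested hits as compounds dissolved from fresh powder.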

T1 sequence (P07947 2-543): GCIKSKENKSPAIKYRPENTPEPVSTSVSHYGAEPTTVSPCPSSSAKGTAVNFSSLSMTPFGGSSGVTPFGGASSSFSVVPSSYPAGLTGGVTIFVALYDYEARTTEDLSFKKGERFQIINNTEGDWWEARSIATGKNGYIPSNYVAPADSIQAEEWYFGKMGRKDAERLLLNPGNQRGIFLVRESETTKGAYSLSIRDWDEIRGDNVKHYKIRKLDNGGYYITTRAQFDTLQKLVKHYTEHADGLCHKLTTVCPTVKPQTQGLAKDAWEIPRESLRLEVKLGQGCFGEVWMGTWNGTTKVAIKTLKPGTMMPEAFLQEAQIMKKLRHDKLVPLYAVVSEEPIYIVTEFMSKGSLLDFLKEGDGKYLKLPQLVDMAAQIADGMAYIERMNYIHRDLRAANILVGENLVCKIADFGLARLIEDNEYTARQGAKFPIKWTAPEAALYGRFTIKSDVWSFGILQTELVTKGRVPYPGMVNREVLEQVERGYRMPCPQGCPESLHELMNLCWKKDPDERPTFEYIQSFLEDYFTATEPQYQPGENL

Row | Structure (SMILES) | First screening IR (inhibition rate) [%] | Second screening IR (inhibition rate) (second screening, dissolved from fresh powder, n = 4) [%]
1 | Cc1ccc(Cn2c(=O)c3ccccc3n3c(CCC(=O)NCCN(Cc4ccco4)C(C)C)nnc23)cc1 [Compound Z1169067782] | 4 | –
2 | CS(=O)(=O)c1ccc(Cl)c(S(N)(=O)=O)c1 [Compound Z353972988] | 2 | –
3 | COc1cccc(OCCN2CCN(c3cc(C)nc4c(-c5ccc(Cl)cc5)c(C)nn34)CC2)c1 [Compound Z435980234] | 3 | –
4 | CN(Cc1ccc(C(=O)NCC(F)(F)F)cc1)c1cc(Cl)nc(N)n1 [Compound Z328693166] | 10 | –
5 | CC(C)c1nnc(CNC(C)(C)c2ccc(Cl)cc2)o1 [Compound Z1120830695] | 17 | –
6 | COc1cccc(-c2cc(-c3ccccc3)c3ccccc3n2)c1.Cl [Compound Z48951025] | -6 | –
7 | CCOc1ccc(NC(=O)c2ccccc2NC(=O)CN2CCOCC2)cc1 [Compound Z46179735] | 14 | –
8 | CCC1(c2ccc(F)cc2)NC(=O)N(CC(=O)Nc2ccc(C(=O)N(C)C)cc2)C1=O (centres unmarked) [Compound Z14224841] | 16 | –
9 | Nc1ncnc(Nc2ccc(F)cc2)n1 [Compound Z56931701] | -4 | –
10 | O=C(CSc1ccc2c(c1)OCCCO2)Nc1ccc2c(c1)CCC2 [Compound Z18212324] | 14 | –
11 | CCOc1ccc(-n2cc(-c3ccccc3)c3c(NCCO)ncnc32)cc1 [Compound Z57456164] | 20 | –
12 | CC(C)(C)OC(=O)N1CC(NC(=O)c2cc3c(F)cc(Br)cc3[nH]2)C1 [Compound Z1231909655] | -12 | –
13 | CN(C)c1ccc(NC(=O)N(C)C2CS(=O)(=O)c3ccc(Cl)cc32)cn1 (centres unmarked) [Compound Z1688689058] | -9 | –
14 | Cc1c(NC(=O)C2CC(=O)N(c3ccc4c(c3)CCC4)C2)n[nH]c1C1CC1 (centres unmarked) [Compound Z954497746] | -9 | –
15 | O=C(Nc1ccc2ccccc2n1)c1ccc(OCc2cccnc2)cc1 [Compound Z339583070] | -12 | –
16 | Cl.Oc1ccccc1-c1cc(-c2ccccc2)c2cc(Cl)ccc2n1 [Compound Z48950876] | 3 | –
17 | CC(C)(C)n1cc(C(=O)NCc2ccc(-c3cccnc3)cc2)cn1 [Compound Z1276379731] | 5 | –
18 | Cn1nnnc1SCC(=O)c1c(-c2ccccc2)[nH]c2ccccc12 [Compound Z18519048] | 0 | –
19 | Brc1cccc(C2C=C(c3ccccc3)Nc3ncnn32)c1 (centres unmarked) [Compound Z56850769] | 9 | –
20 | Cc1cc(C)c(C)c(S(=O)(=O)N(C)C2CCS(=O)(=O)C2)c1C (centres unmarked) [Compound Z71311814] | 1 | –
21 | COCCN(CCC#N)S(=O)(=O)c1ccccc1S(C)(=O)=O [Compound Z1116705979] | 42 | –
22 | CC(Nc1ccc([N+](=O)[O-])cc1[N+](=O)[O-])c1nnc2ccccn12 (centres unmarked) [Compound Z128086498] | -9 | –
23 | Cc1c(N=C2SC(CC(=O)Nc3ccc(F)cc3)C(=O)N2CC2CCCCC2)c(=O)n(-c2ccccc2)n1C (centres unmarked) [Compound Z56900652] | 8 | –
24 | CCN(c1ccc(-c2csc(Nc3ccc(OC)cc3)n2)cc1)S(C)(=O)=O [Compound Z64779311] | -4 | –

Row | Structure (SMILES) | First screening IR (inhibition rate) [%] | Second screening IR (inhibition rate) (second screening, dissolved from fresh powder, n = 4) [%]
25 | O=C1CC(C(=O)Nc2cc(CC3CCCCC3)[nH]n2)c2ccc(F)cc2N1 (centres unmarked) [Compound Z729744666] | 22 | –
26 | CCN(CC)C(CNC(=O)C1CCN(c2ccc3nnc(C(F)(F)F)n3n2)CC1)c1ccccc1 (centres unmarked) [Compound Z237862822] | 0 | –
27 | CN(C)c1nc(N)nc(CSCCOc2ccc(F)cc2)n1 [Compound Z197453372] | -8 | –
28 | CN(CCO)c1ccc(S(C)(=O)=O)cc1S(C)(=O)=O [Compound Z199538264] | 3 | –
29 | Clc1ccc(-c2csc(Nc3ccccc3)n2)s1 [Compound Z238765362] | 28 | –
30 | NC(=O)c1ccc(COC(=O)CCc2ccc3ccccc3n2)c([N+](=O)[O-])c1 [Compound Z166077836] | -4 | –
31 | Cc1ccc(Nc2ncnc3sc4c(c23)CCCC4)c(O)c1 [Compound Z85929120] | 2 | –
32 | Cc1nc2ccccc2c(=O)n1/N=C/c1c2ccccc2cc2ccccc12 [Compound Z49732101] | 2 | –
33 | COc1ccc(/C(O)=C2\C(=O)C(=O)N(CCN3CCNCC3)C2c2cccc(Oc3ccccc3)c2)cc1 (centres unmarked) [Compound Z56865657] | 6 | –
34 | NC(=O)C1(CNC(=O)c2cc3c(cc2O)CCCC3)CCOCC1 [Compound Z856541214] | 17 | –
35 | CC(C)S(=O)(=O)CCS(=O)(=O)Cc1ccc(Cl)cc1 [Compound Z1347350562] | -14 | –
36 | CCOc1ccc(-n2c(SCC(=O)c3ccc[nH]3)nnc2-c2ccccc2Cl)cc1 [Compound Z18672879] | 7 | –
37 | CC(CN(C)Cc1ccccc1)Nc1nc(N)c2ccccc2n1 (centres unmarked) [Compound Z1593120476] | -10 | –
38 | CCN(C1CCS(=O)(=O)C1)S(=O)(=O)c1cc(Br)ccc1C (centres unmarked) [Compound Z89358343] | 1 | –
39 | CCCCN(C1CCS(=O)(=O)C1)S(=O)(=O)c1ccc(Br)cc1Cl (centres unmarked) [Compound Z223263980] | 5 | –
40 | COc1ccc(-c2cc(-c3cc4ccccc4o3)nc3c2cnn3C(C)C)cc1 [Compound Z94751514] | 3 | –
41 | CC(C)(C)OC(=O)N1CCCc2cc(NC(=O)c3cnc[nH]3)ccc21 [Compound Z1131596340] | 1 | –
42 | Cc1ccc(-c2nc(NC(=O)c3ccc(F)cc3F)n[nH]2)cc1 [Compound Z119762582] | -5 | –
43 | Cc1nc(NCC2CCN(c3ccc(F)cc3)C2)c2cnn(C)c2n1 (centres unmarked) [Compound Z815820560] | -4 | –
44 | CCC(C)NC(=O)c1ccc2c(=O)n(CC(C)C)c3nnc(SCC(=O)Nc4ccccc4C)n3c2c1 (centres unmarked) [Compound Z1157725045] | -8 | –
45 | CC(O)CNc1nc2ccccc2n1CC(=O)NCc1cccs1 (centres unmarked) [Compound Z25766910] | -11 | –
46 | CCN(C1CCS(=O)(=O)C1)S(=O)(=O)c1ccc(Br)cc1 (centres unmarked) [Compound Z45467079] | 4 | –
47 | CN(C)S(=O)(=O)c1cccc(S(=O)(=O)N(C)C)c1 [Compound Z285953016] | 13 | –

More lines, now with the values ahead:

Row | First screening IR (inhibition rate) [%] | Second screening IR (inhibition rate) (second screening, dissolved from fresh powder, n = 4) [%] | Structure (SMILES)
48 | -2 | – | CC1C/C(=C/c2ccc(C#N)cc2)c2nc3ccccc3c(C(=O)O)c2C1 (centres unmarked) [Compound Z46107862]
49 | 31 | – | CCn1ncc2c(C(=O)Nc3ccc(F)c([N+](=O)[O-])c3)cc(-c3cccs3)nc21 [Compound Z225316878]
50 | -1 | – | CC(C)n1ncc2c(C(=O)Nc3ccc(F)c([N+](=O)[O-])c3)cc(-c3ccco3)nc21 [Compound Z216541962]
51 | 14 | – | Cc1occc1C(=O)Nc1cc(Nc2nccc(C(F)(F)F)n2)ccc1F [Compound Z645121524]
52 | -1 | – | COC(=O)c1cc(-c2ccc(F)cc2)nc2c1c(C)nn2C1CCS(=O)(=O)C1 (centres unmarked) [Compound Z90289702]
53 | -1 | – | COc1ccc(N(C)C(=O)c2[nH]nc(-c3ccccc3)c2Br)cn1 [Compound Z934680220]
54 | -13 | – | Oc1cccc(/C=N/Nc2ccnc3cc(Cl)ccc23)c1 [Compound Z49625857]
55 | 6 | – | Clc1ccccc1/C=C1\CCCc2c1nc1ncnn1c2-c1ccccc1Cl [Compound Z56799005]
56 | 5 | – | O=C(CCc1ccc(-c2ccccc2F)o1)Nc1cccc(NC(=O)CCn2ccnc2)c1 [Compound Z431623528]
57 | 58 | -7 | O=C(/C=C/c1cccs1)Nc1cc(-c2cccc([N+](=O)[O-])c2)sc1C(=O)O [Compound Z204342158]
58 | 6 | – | Cc1nc2cc(NC(=O)c3cc(C)n(-c4cccnc4)c3C)ccc2o1 [Compound Z395169542]
59 | 0 | – | Cc1cccn2c(NC(=O)c3cccc(S(=O)(=O)NC(C)C)c3)c(-c3ccccc3)nc12 [Compound Z225376048]
60 | 16 | – | O=C(/C=C/c1cccnc1)c1ccc(N2CCOC2=O)cc1 [Compound Z970272914]
61 | 10 | – | CC1C/C(=C/c2ccccc2[N+](=O)[O-])c2nc3ccccc3c(C(=O)O)c2C1 (centres unmarked) [Compound Z46107814]
62 | 8 | – | Cc1ccc(C)c(-n2nnnc2SC(C)C(=O)Nc2ccc(Cl)cn2)c1 (centres unmarked) [Compound Z21689617]
63 | 8 | – | Cc1ccccc1-c1cc(C(=O)O)c2cnn(C(C)C)c2n1 [Compound Z56643722]
64 | 1 | – | Cc1ncc2c(n1)CCN(C(=O)NCc1cc(-c3ccccc3)no1)C2 [Compound Z558380580]
65 | 5 | – | Cc1cc(SCC(=O)c2cc(C)n(-c3ccccc3F)c2C)nc2ccccc12 [Compound Z20243606]
66 | 21 | – | O=C(c1cc(Cc2ccccc2)ccc1O)N1CCN(Cc2ccon2)CC1 [Compound Z1285074692]
67 | 37 | – | CNC(=O)c1cccc(NCc2cc(C)ccc2O)n1 [Compound Z1743524859]
68 | -14 | – | Cc1ccc(Oc2ccc(NC(=O)N3CCNC(=O)C3)cn2)cc1 [Compound Z435639920]
69 | 44 | – | Cc1ccn2c(/C=C/C(=O)c3cccc(N4CCOC4=O)c3)cnc2c1 [Compound Z1263913876]
70 | 37 | – | CC(C)n1ncc2c(C(=O)Nc3ccccc3F)cc(-c3ccco3)nc21 [Compound Z216407296]
